30 compounds from patent publication US11446287B2, “Compounds and methods for EP300 or CBP modulation and indications therefor” (Opna Immuno-Oncology SA, priority 2019, dated 2022) can be followed below.

For the test, the target named is T1, Recombinant human CBP containing the bromodomain (CBP-BD (1043-1159)) (Homo sapiens, UniProt Q92793).
T1 construct: Recombinant human CBP bromodomain (CBP-BD (1043-1159)); made in house; host or cells: E. coli BL21-CodonPlus (DE3), modified pET vector
Description: CBP Alphascreen binding assay. Particulars: read-out: CREBBP (CBP) IC50. The method, boiled down: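 Buffer: 50 mM HEPES pH 7.5, 50 mM NaCl, 0.01% BSA, 0.01% Triton X-100, 2 mM DTT. The signal was normalised to plate controls and fitted with a four-parameter curve to give IC50.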
In general terms: In Alpha technology, singlet oxygen from a donor bead excites a nearby acceptor bead.

T1 sequence (Q92793 1081-1197): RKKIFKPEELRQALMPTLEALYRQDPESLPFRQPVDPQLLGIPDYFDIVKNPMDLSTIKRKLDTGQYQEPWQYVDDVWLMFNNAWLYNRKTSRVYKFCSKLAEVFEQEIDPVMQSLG

What is called IC50 is the concentration needed to halve the response being measured. Take `Cc1nnn(C)c1-c1cnc2c(c1)c(-c1ccc(C(=O)O)cc1OC1CC1)cn2C1CCOCC1` [P-0413, 3-cyclopropoxy-4-(5-(1,4-dimethyl-1H-1,2,3-triazol-5-yl)-1-(tetrahydro-2H-pyran-4-yl)-1H-pyrrolo[2,3-b]pyridin-3-yl)benzoic acid]: the concentration for half-maximal inhibition (IC50) was 0.1 to 1000 nM.

As for `CCOc1cc(C(=O)O)nc(OCC)c1-c1cn(-c2ccccc2F)c2ncc(-c3c(C)noc3C)cc12` [P-0414, 5-(5-(3,5-dimethylisoxazol-4-yl)-1-(2-fluorophenyl)-1H-pyrrolo[2,3-b]pyridin-3-yl)-4,6-diethoxypicolinic acid], the IC50 was 0.1 to 1000 nM.

Take `CCOc1cc(C(=O)O)nc(OCC)c1-c1cn([C@@H](C)c2ccccn2)c2ncc(-c3c(C)noc3C)cc12` [P-0415, (S)-5-(5-(3,5-dimethylisoxazol-4-yl)-1-(1-(pyridin-2-yl)ethyl)-1H-pyrrolo[2,3-b]pyridin-3-yl)-4,6-diethoxypicolinic acid]: the IC50 lay in the range of 0.1 to 1000 nM.

As for `CCOc1nc(C(=O)O)c(C)cc1-c1cn(C(C2CC2)C2CC2)c2ncc(-c3c(C)noc3C)cc12` [P-0416, 5-(1-(dicyclopropylmethyl)-5-(3,5-dimethylisoxazol-4-yl)-1H-pyrrolo[2,3-b]pyridin-3-yl)-6-ethoxy-3-methylpicolinic acid], the IC50 fell in the range of 0.1 to 1000 nM.

Regarding `CCOc1nc(C(=O)O)cc(C)c1-c1cn(C(C2CC2)C2CC2)c2ncc(-c3c(C)noc3C)cc12` [P-0417, 5-(1-(dicyclopropylmethyl)-5-(3,5-dimethylisoxazol-4-yl)-1H-pyrrolo[2,3-b]pyridin-3-yl)-6-ethoxy-4-methylpicolinic acid], the IC50 lay in the range of 0.1 to 1000 nM.

In the case of `Cc1noc(C)c1-c1cnc2c(c1)c(-c1ccnc(C(=O)O)c1C)cn2C(C1CC1)C1CC1` [P-0418, 4-(1-(dicyclopropylmethyl)-5-(3,5-dimethylisoxazol-4-yl)-1H-pyrrolo[2,3-b]pyridin-3-yl)-3-methylpicolinic acid], the IC50 was in the range of 0.1 to 1000 nM.

Turning to `Cc1noc(C)c1-c1cnc2c(c1)c(-c1ccnc(C(=O)O)c1C)cn2C1CCOCC1` [P-0419, 4-(5-(3,5-dimethylisoxazol-4-yl)-1-(tetrahydro-2H-pyran-4-yl)-1H-pyrrolo[2,3-b]pyridin-3-yl)-3-methylpicolinic acid], the IC50 lay within 0.1 to 1000 nM.

Consider `CCOc1cc(C(=O)O)nc(OCC)c1-c1cn(C(C2CC2)C2CC2)c2ncc(-c3c(C)noc3C)cc12` [P-0420, 5-(1-(dicyclopropylmethyl)-5-(3,5-dimethylisoxazol-4-yl)-1H-pyrrolo[2,3-b]pyridin-3-yl)-4,6-diethoxypicolinic acid], for which the IC50 is 0.1 to 1000 nM.

Consider `CCOc1cc(C(=O)O)nc(OCC)c1-c1cn(-c2ncccc2C#N)c2ncc(-c3c(C)noc3C)cc12` [P-0421, 5-(1-(3-cyanopyridin-2-yl)-5-(3,5-dimethylisoxazol-4-yl)-1H-pyrrolo[2,3-b]pyridin-3-yl)-4,6-diethoxypicolinic acid], for which the IC50 was in the range of 0.1 to 1000 nM.

As for `CCOc1cc(C(=O)O)nc(OCC)c1-c1cn(-c2ncccc2C(N)=O)c2ncc(-c3c(C)noc3C)cc12` [P-0422, 5-(1-(3-carbamoylpyridin-2-yl)-5-(3,5-dimethylisoxazol-4-yl)-1H-pyrrolo[2,3-b]pyridin-3-yl)-4,6-diethoxypicolinic acid], the IC50 is 0.1 to 1000 nM.

In the case of `CCOc1cc(C(=O)O)nc(OCC)c1-c1cn(-c2ccc(C#N)cc2F)c2ncc(-c3c(C)noc3C)cc12` [P-0423, 5-(1-(4-cyano-2-fluorophenyl)-5-(3,5-dimethylisoxazol-4-yl)-1H-pyrrolo[2,3-b]pyridin-3-yl)-4,6-diethoxypicolinic acid], the IC50 fell in the range of 0.1 to 1000 nM.

With `CCOc1cc(C(=O)O)nc(OCC)c1-c1cn(-c2cnc(C3CC3)nc2)c2ncc(-c3c(C)noc3C)cc12` [P-0424, 5-(1-(2-cyclopropylpyrimidin-5-yl)-5-(3,5-dimethylisoxazol-4-yl)-1H-pyrrolo[2,3-b]pyridin-3-yl)-4,6-diethoxypicolinic acid], the IC50 lay within 0.1 to 1000 nM.

With `CCOc1cc(C(=O)O)nc(OCC)c1-c1cn(C2CCC(F)(F)CC2)c2ncc(-c3c(C)noc3C)cc12` [P-0425, 5-(1-(4,4-difluorocyclohexyl)-5-(3,5-dimethylisoxazol-4-yl)-1H-pyrrolo[2,3-b]pyridin-3-yl)-4,6-diethoxypicolinic acid], the IC50 lay in the range of 0.1 to 1000 nM.

Consider `CCOc1cc(C(=O)O)ncc1-c1cn(C(C2CC2)C2CC2)c2ncc(-c3c(C)noc3C)cc12` [P-0427, 5-(1-(dicyclopropylmethyl)-5-(3,5-dimethylisoxazol-4-yl)-1H-pyrrolo[2,3-b]pyridin-3-yl)-4-ethoxypicolinic acid], for which the IC50 fell in the range of 0.1 to 1000 nM.

For the compound `CCOc1cc(C(=O)O)ncc1-c1cn(C2CCOCC2)c2ncc(-c3c(C)noc3C)cc12` [P-0428, 5-(5-(3,5-dimethylisoxazol-4-yl)-1-(tetrahydro-2H-pyran-4-yl)-1H-pyrrolo[2,3-b]pyridin-3-yl)-4-ethoxypicolinic acid], the IC50 lay in the range of 0.1 to 1000 nM.

On to `CCOc1cc(C(=O)O)nc(OCC)c1-c1cn(-c2cn(C(F)F)nc2C)c2ncc(-c3c(C)noc3C)cc12` [P-0429, 5-(1-(1-(difluoromethyl)-3-methyl-1H-pyrazol-4-yl)-5-(3,5-dimethylisoxazol-4-yl)-1H-pyrrolo[2,3-b]pyridin-3-yl)-4,6-diethoxypicolinic acid], for which the IC50 was in the range of 0.1 to 1000 nM.

Consider `CCOc1cc(C(=O)O)nc(OCC)c1-c1cn(-c2cn(CC)nc2C)c2ncc(-c3c(C)noc3C)cc12` [P-0430, 5-(5-(3,5-dimethylisoxazol-4-yl)-1-(1-ethyl-3-methyl-1H-pyrazol-4-yl)-1H-pyrrolo[2,3-b]pyridin-3-yl)-4,6-diethoxypicolinic acid], for which the 50% inhibitory concentration (IC50) fell in the range of 0.1 to 1000 nM.

Regarding `CCOc1cc(C(=O)O)nc(OCC)c1-n1cc(-c2ccc(F)cc2F)c2ncc(-c3c(C)noc3C)cc21` [P-0431, 5-(3-(2,4-difluorophenyl)-6-(3,5-dimethylisoxazol-4-yl)-1H-pyrrolo[3,2-b]pyridin-1-yl)-4,6-diethoxypicolinic acid], the IC50 fell in the range of 0.1 to 1000 nM.

For the compound `CCOc1cc(C(=O)OC)nc(OCC)c1-c1cn(-c2ccc(F)cc2F)c2ncc(-c3c(C)noc3C)cc12` [P-0432, methyl 5-(1-(2,4-difluorophenyl)-5-(3,5-dimethylisoxazol-4-yl)-1H-pyrrolo[2,3-b]pyridin-3-yl)-4,6-diethoxypicolinate], the IC50 is 0.1 to 1000 nM.

Take `CCOc1cc(C(=O)O)nc(OCC)c1-c1cn(C2CCN(C(=O)OC(C)(C)C)CC2)c2ncc(-c3c(C)noc3C)cc12` [P-0433, 5-(1-(1-(tert-butoxycarbonyl)piperidin-4-yl)-5-(3,5-dimethylisoxazol-4-yl)-1H-pyrrolo[2,3-b]pyridin-3-yl)-4,6-diethoxypicolinic acid]: the IC50 is 0.1 to 1000 nM.

Take `Cc1noc(C)c1-c1cnc2c(c1)c(C1CCC(C(=O)O)CC1)cn2-c1ccc(F)cc1F` (stereo not drawn) [P-0434, 4-(1-(2,4-difluorophenyl)-5-(3,5-dimethylisoxazol-4-yl)-1H-pyrrolo[2,3-b]pyridin-3-yl)cyclohexane-1-carboxylic acid]: the IC50 is 0.1 to 1000 nM.

For the compound `CCOc1cc(C(=O)O)nc(OCC)c1-c1cn(C2CCN(S(C)(=O)=O)CC2)c2ncc(-c3c(C)noc3C)cc12` [P-0435, 5-(5-(3,5-dimethylisoxazol-4-yl)-1-(1-(methylsulfonyl)piperidin-4-yl)-1H-pyrrolo[2,3-b]pyridin-3-yl)-4,6-diethoxypicolinic acid], the IC50 lay within 0.1 to 1000 nM.

Turning to `CCOc1cc(C(=O)O)nc(OCC)c1-c1cn(-c2cccnc2)c2ncc(-c3c(C)noc3C)cc12` [P-0436, 5-(5-(3,5-dimethylisoxazol-4-yl)-1-(pyridin-3-yl)-1H-pyrrolo[2,3-b]pyridin-3-yl)-4,6-diethoxypicolinic acid], the IC50 lay within 0.1 to 1000 nM.

In the case of `Cc1noc(C)c1-c1cnc2c(c1)c(-c1ccc(CC(=O)O)cc1F)cn2-c1ccc(F)cc1F` [P-0437], the IC50 is 0.1 to 1000 nM.

Consider `Cc1noc(C)c1-c1cnc2c(c1)c(-c1ccc(CC(=O)O)cc1)cn2-c1ccc(F)cc1F` [P-0438, 2-(4-(1-(2,4-difluorophenyl)-5-(3,5-dimethylisoxazol-4-yl)-1H-pyrrolo[2,3-b]pyridin-3-yl)phenyl)acetic acid], for which the IC50 lay within 0.1 to 1000 nM.

On to `Cc1noc(C)c1-c1cnc2c(c1)c(-c1c(Cl)cc(C(=O)O)cc1OC(F)(F)F)cn2-c1cccnn1` [P-0439, 3-chloro-4-(5-(3,5-dimethylisoxazol-4-yl)-1-(pyridazin-3-yl)-1H-pyrrolo[2,3-b]pyridin-3-yl)-5-(trifluoromethoxy)benzoic acid], for which the IC50 lay within 0.1 to 1000 nM.

On to `COC(=O)c1cc(Cl)c(-c2cn(-c3ccc(C4CC4)nc3)c3ncc(-c4c(C)noc4C)cc23)c(OC(F)(F)F)c1` [P-0440, methyl 3-chloro-4-(1-(6-cyclopropylpyridin-3-yl)-5-(3,5-dimethylisoxazol-4-yl)-1H-pyrrolo[2,3-b]pyridin-3-yl)-5-(trifluoromethoxy)benzoate], for which the IC50 was 1000 to 8000 nM.

`Cc1noc(C)c1-c1cnc2c(c1)c(-c1c(Cl)cc(C(=O)O)cc1OC(F)(F)F)cn2-c1ccc(C2CC2)nc1` [P-0441, 3-chloro-4-(1-(6-cyclopropylpyridin-3-yl)-5-(3,5-dimethylisoxazol-4-yl)-1H-pyrrolo[2,3-b]pyridin-3-yl)-5-(trifluoromethoxy)benzoic acid]: the IC50 lay in the range of 0.1 to 1000 nM.

With `CCOc1cc(C(=O)O)c(F)cc1-c1cn(C2CCN(C(=O)OC(C)(C)C)CC2)c2ncc(-c3c(C)noc3C)cc12` [P-0442, 4-(1-(1-(tert-butoxycarbonyl)piperidin-4-yl)-5-(3,5-dimethylisoxazol-4-yl)-1H-pyrrolo[2,3-b]pyridin-3-yl)-5-ethoxy-2-fluorobenzoic acid], the IC50 was in the range of 0.1 to 1000 nM.

As to `COc1ccc(CC(=O)O)cc1-c1cn(-c2ccc(F)cc2F)c2ncc(-c3c(C)noc3C)cc12` [P-0443, 2-(3-(1-(2,4-difluorophenyl)-5-(3,5-dimethylisoxazol-4-yl)-1H-pyrrolo[2,3-b]pyridin-3-yl)-4-methoxyphenyl)acetic acid], the concentration for half-maximal inhibition (IC50) lay within 0.1 to 1000 nM.
